Entries after “also recorded” stand apart in the source; their conditions may differ.
How the values were obtained:
[1] = test system: NRAS-WT/BRAF-WT melanoma cells; assay: Cell death, Annexin V/PI; type: cell-based, human; conditions: single agents or combination; 1 μM 6-thio-dG, 5 μM Gam
[2] = test system: NRAS mutant melanoma cells; assay: Cell viability, Alamar Blue assay; type: cell-based, human; conditions: 7 days; relative to DMSO-treated cells
Protocol: (§1) FIGS. 2a-h. […] (FIGS. 2a-c) NRASmut melanoma cells (FIG. 2a), BRAF-V600E/NRAS mutant cells derived from melanoma patients resistant to BRAF/MEK inhibitors (FIG. 2b), or non-transformed melanocytes and fibroblasts (FIG. 2c) were treated with 6-thio-dG for 7 days. Cell viability was measured by Alamar Blue assay and calculated relative to DMSO-treated cells. (FIG. 2d) NRASmut melanoma cells and non-transformed human fibroblasts were treated with 1 or 5 μM 6-thio-dG for 7 or 14 days. Cell death was assessed by PSVUe staining. Percent of apoptotic cells is shown. (FIG. 2e) Cells were treated with DMSO or 1 μM 6-thio-dG for 14 days and telomere length was assessed by Southern blotting of TRF. Mean TRF length expressed as kilobase pairs is indicated at the bottom. (FIGS. 2f-g) Cells were treated with 1 μM 6-thio-dG for 7 days. (FIG. 2f) ROS production was measured by H2DCFDA fluorescence and normalized to MSO treated cells. (FIG. 2g) DNA damage was assessed by γH2AX staining. […] Tumor volume was measured and average tumor volume (n=4)±SEM was plotted vs. time.
(§2) Cell culture, viability and cell death assays. […] Cell viability was assessed following 6 hr incubation with 500 μM Alamar Blue (ThermoFisher Scientific, Waltham, Mass.) using an EnVision Xcite Multilabel plate reader (Perkin Elmer, Waltham, Mass.). […]

[3] = test system: BRAF-V600E/NRAS mutant cells derived from melanoma patients resistant to BRAF/MEK inhibitors; assay: Cell viability, Alamar Blue assay; type: cell-based, human; conditions: 7 days; relative to DMSO-treated cells
Protocol: as §1, §2

[4] = test system: NRASmut melanoma cells (WM3000 or M93-047) tumors; assay: NRAS mutant melanoma xenograft tumors in NSG mice; type: in vivo; conditions: 2.5 mg/kg i.p. q.d.
Protocol: as §1, with “(FIGS. 2f-g) Cells were treated with 1 μM 6-thio-dG for 7 days.” left out
green) and EtBr (dead cells; red) and imaged using an inverted microscope (4×; scale bar=250 μm). […] P values were calculated using unpaired Student's t-test. * p<0.05, **p<0.01, ***p<0.005, when comparing vehicle control vs. combination treatment groups. […] Kaplan Meier survival curves of mice treated for 14 days. p-values were calculated by Mantel-Cox logrank test; * p<0.05, **p<0.01, ***p<0.005. […]

## Nc1nc2c(ncn2[C@H]2C[C@H](O)[C@@H](CO)O2)c(=S)[nH]1 [6-thio-dG, 6-thio-2′-deoxy-guanosine]
[1]
  cell death: did not induce cell death
[2]
  cell viability: impairs viability; also recorded: impaired the viability
[3]
  cell viability: impaired the viability
[4]
  tumor growth, single agent: slowed the growth of tumors; also recorded: slowed, but did not completely abrogated tumor growth

— US20210113602A1, “USE OF 6-THIO-2'-DEOXYGUANOSINE (6-THIO-dG) TO TREAT MELANOMA” (The Board of Regents of the University of Texas System, priority 2018, published 2021)
